Experimental data as given in ChEMBL document CHEMBL1126491, “Dual antagonists of platelet activating factor and histamine. 2. pyridine ring substitution of N-acetyl-4-(8-chloro-5,6-dihydro-11H-benzo[5,6]cyclohepta[1,2-b]pyridin-11-ylidene)piperidines” (Bioorg Med Chem Lett, 1993).

What was measured:
[1] = target: Histamine H1 receptor (Rattus norvegicus, UniProt P31390); test: Ability to displace [3H]-pyrilamine from H1 receptor in rat brain membrane.; format: cell membranes
[2] = organism: Homo sapiens; test: Concentration for inhibition of PAF-induced platelet aggregation in human platelet-rich plasma; format: functional

Sequence of Histamine H1 receptor (P31390 whole entry): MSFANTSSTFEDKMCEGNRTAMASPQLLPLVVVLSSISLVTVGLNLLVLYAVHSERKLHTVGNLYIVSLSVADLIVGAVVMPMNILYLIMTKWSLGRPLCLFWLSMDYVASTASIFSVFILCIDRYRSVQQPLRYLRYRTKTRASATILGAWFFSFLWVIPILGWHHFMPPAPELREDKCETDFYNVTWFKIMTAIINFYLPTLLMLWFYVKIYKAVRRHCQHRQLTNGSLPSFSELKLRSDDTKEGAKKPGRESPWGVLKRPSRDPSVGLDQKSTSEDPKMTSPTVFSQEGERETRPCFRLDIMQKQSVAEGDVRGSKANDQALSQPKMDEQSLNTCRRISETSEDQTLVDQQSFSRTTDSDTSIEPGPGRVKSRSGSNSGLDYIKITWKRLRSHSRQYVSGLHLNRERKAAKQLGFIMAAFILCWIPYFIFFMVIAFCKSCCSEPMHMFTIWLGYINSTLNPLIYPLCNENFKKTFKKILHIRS

Structure (SMILES) | Ki [1] [nM] | IC50 [2] [nM]
CC(=O)N1CCC(=C2c3ccc(Cl)cc3CCc3cc(-c4ccccc4)cnc32)CC1 | 230 | 1080
CC(=O)N1CCC(=C2c3ccc(Cl)cc3CCc3ccc(Cl)nc32)CC1 | 1360 | 610
CC(=O)N1CCC(=C2c3ccc(Cl)cc3CCc3ccc(O)nc32)CC1 | > 10000 | 6750
CC(=O)N1CCC(=C2c3ccc(Cl)cc3CCc3ccc(C)nc32)CC1 | 1030 | 280
COc1ccnc2c1CCc1cc(Cl)ccc1C2=C1CCN(C(C)=O)CC1 | > 10000 | 3040
COc1ccc2c(n1)C(=C1CCN(C(C)=O)CC1)c1ccc(Cl)cc1CC2 | > 10000 | 6000
CC(=O)N1CCC(=C2c3ccc(Cl)cc3CCc3c(O)ccnc32)CC1 | > 10000 | ≥ 50000
CC(=O)N1CCC(=C2c3ccc(Cl)cc3CCc3c(Cl)ccnc32)CC1 | 240 | 8000
CC(=O)N1CCC(=C2c3ccc(Cl)cc3CCc3c(C)ccnc32)CC1 | 230 | 6000

Second part, the compound after the results:

Ki [1] [nM] | IC50 [2] [nM] | Structure (SMILES)
10 | 2290 | CC(=O)N1CCC(=C2c3ccc(Cl)cc3CCc3cc(Br)cnc32)CC1
700 | 2730 | CC(=O)N1CCC(=C2c3ccc(Cl)cc3CCc3cc(C=O)cnc32)CC1
1160 | 2080 | CC(=O)c1cnc2c(c1)CCc1cc(Cl)ccc1C2=C1CCN(C(C)=O)CC1
430 | 1480 | COc1cnc2c(c1)CCc1cc(Cl)ccc1C2=C1CCN(C(C)=O)CC1
70 | 340 | CC(=O)N1CCC(=C2c3ccc(Cl)cc3CCc3cc(C)cnc32)CC1
– | 610 | CC(=O)N1CCC(=C2c3ccc(Cl)cc3CCc3cccnc32)CC1 [SCH-37370]
40 | 1070 | CC(=O)N1CCC(=C2c3ccc(Cl)cc3CCc3cc(C(C)O)cnc32)CC1 (centres undefined)
20 | 690 | CC(=O)N1CCC(=C2c3ccc(Cl)cc3CCc3cc(CO)cnc32)CC1
1580 | 4130 | CC(=O)N1CCC(=C2c3ccc(Cl)cc3CCc3cc(O)cnc32)CC1
100 | 940 | CC(=O)N1CCC(=C2c3ccc(Cl)cc3CCc3cc(Cl)cnc32)CC1
210 | 600 | CSc1cnc2c(c1)CCc1cc(Cl)ccc1C2=C1CCN(C(C)=O)CC1
